Tests used:
MEK1 = target: T1, MEK1 (Homo sapiens, UniProt Q02750); assay: In vitro MEK1 inhibition assay (ADP-Glo kinase assay); type: biochemical; settings: recombinant GST-MEK1, GST-ERK2, 10 µM ATP, mean value ± SD; read-out: MEK1 inhibitory activity IC50 value
T1 construct: purchased Carna Biosciences, Japan
Experimental: An in vitro kinase assay of MEK1 was performed using ADP-Glo kinase assay (Promega, Madison, WI, USA) according to the manufacturer’s protocol. […] Reactions were stopped by adding 5 µL of ADP-Glo reagent to each well. After incubating at 22 °C for 40 min, 10 µL of the kinase detection reagent was added and the plates were incubated for another 30 min at 22 °C in the dark. The reaction mixture was analysed by EnSpire (PerkinElmer, Waltham, MA, USA). U0126 was used as the positive control for MEK1 inhibition.

Hep3B = assay: MTT cytotoxic assay; type: cell-based, human; settings: Homo sapiens, Hep3B, 48 h, mean value ± SD
Experimental: (§1) Three human hepatocarcinoma cell lines (SMMC-7721, HepG2 and Hep3B) and normal hepatocyte cell line (QSG-7701) were maintained in Dulbecco Modified Eagle Medium (DMEM) containing 4.0 mM L-Glutamine and 4500 mg/l Glucose supplemented with 10% (v/v) foetalbovine serum (FBS) and 100 unites/mL penicillin/streptomycin at 37 °C in humidified atmosphere of 5% CO2 and 95% air.
(§2) The in vitro cytotoxic activities of the carbazole derivatives of DHA were evaluated against three human hepatocarcinoma cell lines (SMMC-7721, HepG2 and Hep3B) and a normal human hepatocyte cell line (QSG-7701) via the MTT colorimetric method. Briefly, SMMC-7721, HepG2, Hep3B and QSG-7701 cells were harvested at log phase of growth and seeded in 96-well plates (100 µL/well at a density of 2 × 10^5 cells/mL). After 24 h incubation at 37 °C and 5% CO2 to allow cell attachment, cultures were exposed to various concentrations of the isolated compounds for 48 h. Finally, MTT solution (2.5 mg/mL in PBS) was added (40 µL/well). Plates were further incubated for 4 h at 37 °C, and the formazan crystals formed were dissolved by adding 150 µL/well of DMSO. Absorption at 570 nm was measured with an ELISA plate reader. […] Doxorubicin was co-assayed as positive control.

HepG2 = assay: MTT cytotoxic assay; type: cell-based, human; settings: Homo sapiens, HepG2, 48 h, mean value ± SD
Experimental: as §1, §2

SMMC-7721 = assay: MTT cytotoxic assay; type: cell-based, human; settings: Homo sapiens, SMMC-7721, 48 h, mean value ± SD
Experimental: as §1, §2

HepG2 cells [1] = assay: ROS generation assay (DCFH-DA); type: cell-based, human; settings: dose-dependent
Experimental: Reactive oxygen species (ROS) generation assay was performed by using the reactive oxygen species assay kit (Beyotime Biotech., China). Intracellular ROS generation was tested through dichlorodihydro fluorescein diacetate (DCFH-DA) assay. DCFH-DA is taken up by HepG2 cells, and then activated by esterase-mediated cleavage of acetate to form dichlorodihydro fluorescein (DCFH), which is trapped in the cells. DCFH is converted to fluorescein DCF in the presence of ROS. HepG2 cells were seeded in six-well plates and incubated with different concentrations of compound 10g for 24 h. After removing the compound solution, cells were treated with 10 µM of DCFH-DA at 37 °C for 20 min. Subsequently, the cells were washed with PBS for three times and then exposed to light. Immediately after light exposure, cell images were acquired through an inverted fluorescence microscope (Olympus 1X71 Inverted System Microscope, Olympus, Tokyo, Japan).

HepG2 cells [2] = assay: Mitochondrial membrane potential assay (JC-1); type: cell-based, human
Experimental: The JC-1 mitochondrial membrane potential assay kit (Keygene Biotech., China) was employed to measure mitochondrial depolarization in HepG2 cells. Briefly, cells cultured in six-well plates after indicated treatments were incubated with an equal volume of JC-1 staining solution (5 µg/mL) at 37 °C for 20 min and rinsed twice with PBS. Mitochondrial membrane potentials were monitored by determining the relative amounts of dual emissions from mitochondrial JC-1 monomers or aggregates using flow cytometry (Becton-Dickinson FACSCalibur, New York, USA). Mitochondrial depolarization is indicated by an increase in the pencentage of cells with low ΔΨm (green fluorescence, lower right quadrant) compared with cells with high ΔΨm (red fluorescence, upper right quadrant).

HepG2 cells [3] = assay: Western blot of oncosis and apoptosis markers; type: cell-based, human
Experimental: HepG2 cells were seeded at a density of 5 × 10^6 cells per well and attached for 8 h, and then treated with different concentrations of compound 10g for 48 h. After the treatment, the cells were harvested and washed twice with PBS. The harvested cells were lysed with radio-immunoprecipitation assay (RIPA) lysis buffer (Beyotime Biotech., Nantong, China) with 1% cocktail (Sigma-Aldrich, USA). Whole-cell protein lysates were prepared and centrifuged at 12,000 rpm for 10 min at 4 °C. The total proteins were determined using Bradford reagent (Bio-Rad Laboratories, Inc., USA). Exactly 40 µg of protein per lane was separated through sodium dodecyl sulfate-polyacrylamide gel electrophoresis and then transferred onto a polyvinylidene difluoride membrane (Millipore, Bedford, MA, USA). The membranes were incubated with each antibody and detected through immunoblot analysis. All of the antibodies were purchased from Cell signaling Technology, Inc. (Boston, MA, USA) and diluted in accordance with the manufacturer’s instruction. Proteins were visualized using a C-Digit® imaging system (LI-COR Biosciences, Lincoln, NE, USA).

T1 sequence (Q02750 whole entry): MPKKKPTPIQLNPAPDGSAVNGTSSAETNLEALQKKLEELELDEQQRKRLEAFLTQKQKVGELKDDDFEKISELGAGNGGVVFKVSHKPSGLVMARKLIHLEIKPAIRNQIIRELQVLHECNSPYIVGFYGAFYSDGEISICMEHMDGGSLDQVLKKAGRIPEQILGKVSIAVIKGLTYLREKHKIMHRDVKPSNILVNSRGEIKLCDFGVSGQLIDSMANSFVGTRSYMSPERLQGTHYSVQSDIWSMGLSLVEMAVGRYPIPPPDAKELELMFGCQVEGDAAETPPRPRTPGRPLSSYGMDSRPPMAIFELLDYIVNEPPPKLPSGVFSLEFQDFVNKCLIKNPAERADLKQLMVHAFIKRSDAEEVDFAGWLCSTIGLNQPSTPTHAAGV

CCOc1ccc2c(c1)c1c(n2CCN2CCNCC2)-c2cc(C(C)C)ccc2C2(C)CCCC(C)(C(=O)OC)C12 (stereo not drawn) [Compound 10g, 2,3,4,4a,9,13c-Hexahydro-12-ethoxy-7-isopropyl-1,4a-dimethyl-9–(2-(piperazin-1-yl)ethyl)-1H-dibenzo[a,c]carbazole-1-carboxylic acid methyl ester]
IC50 (MEK1): 110 ± 20 nM | IC50 (Hep3B): 730 ± 80 nM | IC50 (HepG2): 510 ± 90 nM | IC50 (SMMC-7721): 1390 ± 130 nM | ROS generation (in words) (HepG2 cells [1]): remarkably induce ROS generation | percentage of cells with low ΔΨm (lower right quadrant) (HepG2 cells [2]; HepG2, 0.2 µM): 5.29% | percentage of cells with low ΔΨm (lower right quadrant) (HepG2 cells [2]; HepG2, 0.5 µM): 9.47% | percentage of cells with low ΔΨm (lower right quadrant) (HepG2 cells [2]; HepG2, 1.0 µM): 15.00% | level of cytochrome c, caspase-3 and caspase-9 (in words) (HepG2 cells [3]): increased dose-dependently | ratio of Bax/Bcl-2 (in words) (HepG2 cells [3]): increased significantly | calpain-1 autolysis (in words) (HepG2 cells [3]; 48 h): autolysed from 80 kDa event to 76 kDa event in a dose-dependent manner | level of α-tubulin and β-actin (in words) (HepG2 cells [3]; dose-dependent): significant decrease
